# Measurements from patent US7709479B1, “Quinazoline derivatives and their use as pharmaceuticals” (AstraZeneca, priority 1999, dated 2010).
# pIC50: −log10 of the molar value.
# Experiments:
# MCF-7 cells [1] = test: In vitro cell proliferation assay, Assay 1 (CyQUANT cell density); type: cell-based; details: Homo sapiens, MCF7, 72 h; MCF-7, 3 days with compound; read-out: concentration giving 50% inhibition of cell proliferation
# From the text: (b) In Vitro Cell Proliferation Assay
# These and other assays can be used to determine the ability of a test compound to inhibit the growth of adherent mammalian cell lines, for example the human tumour cell line MCF7.
# Assay 1: MCF-7 (ATCC HTB-22) or other adherent cells were typically seeded at 1×10^3 cells per well (excluding the peripheral wells) in DMEM (Sigma Aldrich) without phenol red, plus 10% foetal calf serum, 1% L-glutamine and 1% penicillin/streptomycin in 96 well tissue culture treated clear plates (Costar). The following day (day 1), the media was removed from a no treatment control plate and the plate stored at −80° C. The remaining plates were dosed with compound (diluted from 10 mM stock in DMSO using DMEM (without phenol red, 10% FCS, 1% L-glutamine, 1% penicillin/streptomycin). Untreated control wells were included on each plate. After 3 days in the presence/absence of compound (day 4) the media was removed and the plates stored at −80° C. Twenty four hours later the plates were thawed at room temperature and cell density determined using the CyQUANT cell proliferation assay kit (c-7026/c-7027 Molecular Probes Inc.) according to manufacturers directions. Briefly, 200 μl of a cell lysis/dye mixture (10 μl of 20× cell lysis buffer B, 190 μl of sterile water, 0.25 μl of CyQUANT GR dye) was added to each well and the plates incubated at room temperature for 5 minutes in the dark. The fluorescence of the wells was then measured using a fluorescence microplate reader (gain 70, 2 reads per well, 1 cycle with excitation 485 nm and emission 530 nm using a CytoFluor plate reader (PerSeptive Biosystems Inc.)). The values from day 1 and day 4 (compound treated) together with the values from the untreated cells were used to determine the dilution range of a test compound that gave 50% inhibition of cell proliferation. Compound no. 1 in Table 1 was effective in this test at 8.03 μM and compound no. 101 in Table 4 was effective in this test at 1.06 μM. […] The optical density of the wells was then determined at 690 nm wavelength using a Titertek Multiscan plate reader. […]
# MCF-7 cells [2] = test: In vitro cell proliferation assay, Assay 2 (BrdU incorporation); type: cell-based; details: Homo sapiens, MCF7; MCF-7, 48 hours with compound, 2 hour labelling; read-out: concentration giving 50% inhibition of BrdU incorporation
# MCF7 cells = test: In vitro cell cycle analysis assay (FACS DNA content); type: cell-based, human; details: 24 hours
# Procedure: This assay determines the ability of a test compound to arrest cells in specific phases of the cell cycle. Many different mammalian cell lines could be used in this assay and MCF7 cells are included here as an example. MCF-7 cells were seeded at 3×10^5 cells per T25 flask (Costar) in 5 ml DMEM (no phenol red 10% FCS, 1% L-glutamine 1% penicillin/streptomycin). Flasks were then incubated overnight in a humidified 37° C. incubator with 5% CO2. The following day 1 ml of DMEM (no phenol red 10% FCS, 1% L-glutamine 1% penicillin/streptomycin) carrying the appropriate concentration of test compound solubilised in DMSO was added to the flask. A no compound control treatments was also included (0.5% DMSO). The cells were then incubated for a defined time (usually 24 hours) with compound. After this time the media was aspirated from the cells and they were washed with 5 ml of prewarmed (37° C.) sterile PBSA, then detached from the flask by brief incubation with trypsin and followed by resuspension in 10 ml of 1% Bovine Serum Albumin (BSA, Sigma-Aldrich Co.) in sterile PBSA. The samples were then centrifuged at 2200 rpm for 10 min. The supernatant was aspirated and the cell pellet was resuspended in 200 μl of 0.1% (w/v) Tris sodium citrate, 0.0564% (w/v) NaCl, 0.03% (v/v) Nonidet NP40, [pH 7.6]. Propridium Iodide (Sigma Aldrich Co.) was added to 40 μg/ml and RNAase A (Sigma Aldrich Co.) to 100 μg/ml. The cells were then incubated at 37° C. for 30 minutes. The samples were centrifuged at 2200 rpm for 10 min, the supernatant removed and the remaining pellet (nuclei) resuspended in 200 μl of sterile PBSA. Each sample was then syringed 10 times using 21 gauge needle. The samples were then transferred to LPS tubes and DNA content per cell analysed by Fluorescence activated cell sorting (FACS) using a FACScan flow cytometer (Becton Dickinson). Typically 25000 events were counted and recorded using CellQuest v1.1 software (Verity Software). Cell cycle distribution of the population was calculated using Modfit software (Verity Software) and expressed as percentage of cells in G0/G1, S and G2/M phases of the cell cycle.
pIC50 (MCF-7 cells [1]),pIC50 (MCF-7 cells [2]),Compound,% Cells in G1 (MCF7 cells; 25 μM),% Cells in G2/M (MCF7 cells; 25 μM),% Cells in S (MCF7 cells; 25 μM),% Cells in G1 (MCF7 cells; 2.12 μM),% Cells in G2/M (MCF7 cells; 2.12 μM),% Cells in S (MCF7 cells; 2.12 μM)
5.10,5.90,COc1cc2ncnc(Nc3ccc(NC(=O)c4ccccc4)cc3)c2cc1OC [Compound 1],25.82%,56.47%,17.71%,–,–,–
5.80,–,COc1cc2ncnc(Nc3ccc(C(=O)NCc4ccc(F)cc4)cc3)c2cc1OC [Compound 557],–,–,–,–,–,–
5.97,6.68 to 6.80,COc1cc2c(Nc3ccc(NC(=O)c4ccccc4)cc3)ncnc2cc1OCCCN1CCOCC1 [Compound 101],–,–,–,19.69%,68.21%,12.4%
